Values of other authors in patent US12691079B2, “Biodissolvable film for localized and efficient treatment of vulvodynia” (The University of North Carolina at Chapel Hill, priority 2019, dated 2026).

System: vulvar vestibule
Conditions: topical application to the vulvar vestibule

For `CCN(CC)CC(=O)Nc1c(C)cccc1C` [lidocaine], the duration of relief is given as 30 to 60 min.
